Data from patent US20050075334A1, “Novel compounds” (priority 2001, published 2005).

Row | Structure (SMILES) | melting point
1 | N#Cc1c(Cl)ccc2[nH]c(Sc3cccc4c(=O)cc[nH]c34)nc12 [Example 8, 5-Chloro-2-[(4-oxo-1,4-dihydroquinolin-8-yl)thio]-1H-benzimidazole-4-carbonitrile] | 376 °C (dec.)
2 | COC(=O)c1cccc2[nH]c(Sc3cccc4c(=O)cc[nH]c34)nc12 [Example 3, 2-(4-Oxo-1,4-dihydro-quinolin-8-ylsulfanyl)-1H-benzoimidazole-4-carboxylic Acid Methyl Ester] | > 250 °C
3 | C[S+]([O-])c1c[nH]c2c(Sc3nc4cc(Cl)ccc4[nH]3)ccc([N+](=O)[O-])c12 (stereo not drawn) [Example 16, 5-Chloro-2-([3-(methylsulfinyl)-4-nitro-1H-indol-7-yl]thio}-1H-benzimidazole] | 243 to 246 °C
